Reference: ChEMBL document CHEMBL1201862, “PubChem BioAssay data set” (2004)
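Dose response: 5 concentrations. Exposure: 48 h. Format: 96-well plates. Endpoint: linear interpolation; highest concentration if not reached. GI50 is the concentration that inhibits growth by half.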 Calls of active or inactive are those of the source. Rule as the data show it: active = GI50 up to about 1.1 µM and inactive = higher.

What was measured:
Assay in all cases: growth of human tumour cells (NCI), 48 h
786-0 = tested on: 786-0
CAKI-1 = tested on: CAKI-1
HCT-116 = tested on: HCT-116
HCT-15 = tested on: HCT-15
K562 = tested on: K562
LOX IMVI = tested on: LOX IMVI
M19-MEL = tested on: M19-MEL
Malme-3M = tested on: Malme-3M
OVCAR-5 = tested on: OVCAR-5
RPMI-8226 = tested on: RPMI-8226
SF-539 = tested on: SF-539
SK-MEL-5 = tested on: SK-MEL-5
SN12C = tested on: SN12C
SNB-75 = tested on: SNB-75
SW-620 = tested on: SW-620
UACC-257 = tested on: UACC-257
COLO 205 = tested on: COLO 205
RXF 393 = tested on: RXF 393

SMILES	GI50 (786-0)	GI50 (CAKI-1)	GI50 (HCT-116)	GI50 (HCT-15)	GI50 (K562)	GI50 (LOX IMVI)	GI50 (M19-MEL)	GI50 (Malme-3M)	GI50 (OVCAR-5)	GI50 (RPMI-8226)	GI50 (SF-539)	GI50 (SK-MEL-5)	GI50 (SN12C)	GI50 (SNB-75)	GI50 (SW-620)	GI50 (UACC-257)	GI50 (COLO 205)	GI50 (RXF 393)
COC(=O)/C(=N\NC(N)=O)C(C(=O)C(=O)Nc1ccccc1C(=O)OC)c1nc2ccc(C(=O)c3ccccc3)cc2nc1O (configuration not stated)	> 100 µM (inactive)	> 100 µM (inactive)	> 100 µM (inactive)	> 100 µM	> 100 µM (inactive)	> 100 µM (inactive)	> 100 µM (inactive)	> 100 µM (inactive)	> 100 µM (inactive)	> 100 µM (inactive)	> 100 µM (inactive)	> 100 µM (inactive)	> 100 µM (inactive)	> 100 µM (inactive)	> 100 µM (inactive)	> 100 µM (inactive)		
O=C1C2C3CC4C5C3C1C5C1(SCCS1)C42 (configuration not stated)	> 100 µM (inactive)	> 100 µM (inactive)	> 100 µM (inactive)	> 100 µM	> 100 µM (inactive)		> 100 µM (inactive)	> 100 µM (inactive)		> 100 µM (inactive)	> 100 µM (inactive)	> 100 µM (inactive)	> 100 µM (inactive)	> 100 µM (inactive)	> 100 µM (inactive)	> 100 µM (inactive)	> 100 µM (inactive)	> 100 µM (inactive)
Cc1ccccc1C(=O)Oc1ccc(O)cc1	> 100 µM (inactive)	> 100 µM (inactive)	> 100 µM (inactive)	> 100 µM	> 100 µM (inactive)		> 100 µM (inactive)	> 100 µM (inactive)	> 100 µM (inactive)	> 100 µM (inactive)	> 100 µM (inactive)	> 100 µM (inactive)	> 100 µM (inactive)	> 100 µM (inactive)	> 100 µM (inactive)	> 100 µM (inactive)	> 100 µM (inactive)	> 100 µM (inactive)
Cc1cc(O)nc(CNC(=O)Cc2ccccc2)n1	> 100 µM (inactive)	> 100 µM (inactive)		> 100 µM	> 100 µM (inactive)	> 100 µM (inactive)	> 100 µM (inactive)	> 100 µM (inactive)	> 100 µM (inactive)	> 100 µM (inactive)	> 100 µM (inactive)		> 100 µM (inactive)	> 100 µM (inactive)	> 100 µM (inactive)	> 100 µM (inactive)	> 100 µM (inactive)	> 100 µM (inactive)
CCN(CC)CCNC(=O)c1ccccc1NC(=O)C(=O)Nc1ccccc1C(=O)NCCN(CC)CC	20.6 µM (inactive)	> 100 µM (inactive)	17.5 µM (inactive)	49.9 µM	16.4 µM (inactive)	24.9 µM (inactive)	22.8 µM (inactive)	21 µM (inactive)	94 µM (inactive)	> 100 µM (inactive)	24.1 µM (inactive)	18.8 µM (inactive)	60.5 µM (inactive)	47 µM (inactive)	18.5 µM (inactive)	18.6 µM (inactive)	14.1 µM (inactive)	
CCOC(=O)C(C(=O)c1ccccc1)=C1NCCN1	> 100 µM (inactive)	> 100 µM (inactive)	> 100 µM (inactive)	> 100 µM	> 100 µM (inactive)	> 100 µM (inactive)	> 100 µM (inactive)	> 100 µM (inactive)	> 100 µM (inactive)	> 100 µM (inactive)	> 100 µM (inactive)	> 100 µM (inactive)	> 100 µM (inactive)		> 100 µM (inactive)	> 100 µM (inactive)	> 100 µM (inactive)	> 100 µM (inactive)
COS(=O)(=O)OCCC(NC(=O)OCc1ccccc1)C(=O)OCc1ccccc1 (configuration not stated)	> 100 µM (inactive)	> 100 µM (inactive)	> 100 µM (inactive)	> 100 µM	> 100 µM (inactive)	> 100 µM (inactive)	> 100 µM (inactive)	> 100 µM (inactive)	> 100 µM (inactive)	> 100 µM (inactive)	> 100 µM (inactive)	> 100 µM (inactive)	> 100 µM (inactive)	71.6 µM (inactive)	> 100 µM (inactive)	> 100 µM (inactive)	> 100 µM (inactive)	
O=C(N/N=C/c1cccc(O)c1O)N/N=C/c1cccc(O)c1O	15.1 µM (inactive)		5.02 µM (inactive)	8.45 µM	6.97 µM (inactive)	18.7 µM (inactive)	22.4 µM (inactive)	22.4 µM (inactive)	22.2 µM (inactive)	19.8 µM (inactive)	4.92 µM (inactive)		21.8 µM (inactive)	8.77 µM (inactive)	17.5 µM (inactive)	19.9 µM (inactive)	> 100 µM (inactive)	19 µM (inactive)
O=c1cc(-c2ccccc2)c2cc3c(=O)ccoc3cc2o1	> 100 µM (inactive)		> 100 µM (inactive)	> 100 µM	> 100 µM (inactive)	> 100 µM (inactive)	> 100 µM (inactive)	81.5 µM (inactive)		> 100 µM (inactive)	> 100 µM (inactive)	43.7 µM (inactive)	> 100 µM (inactive)	14 µM (inactive)	> 100 µM (inactive)	> 100 µM (inactive)	> 100 µM (inactive)	20 µM (inactive)
CCCCNC(=O)NNC(=O)c1cc(/C=C/c2cccc([N+](=O)[O-])c2)ncn1	> 100 µM (inactive)	> 100 µM (inactive)	20 µM (inactive)	87.3 µM	> 100 µM (inactive)	34.2 µM (inactive)	> 100 µM (inactive)	> 100 µM (inactive)	> 100 µM (inactive)	25.4 µM (inactive)		> 100 µM (inactive)	> 100 µM (inactive)	> 100 µM (inactive)	16.7 µM (inactive)	> 100 µM (inactive)	> 100 µM (inactive)	> 100 µM (inactive)
CN(C)CC/C(=N\Nc1ccccc1)c1ccccc1	23 µM (inactive)	3.18 µM (inactive)	12.2 µM (inactive)	2.88 µM	2.48 µM (inactive)		25.2 µM (inactive)	4.78 µM (inactive)	14.4 µM (inactive)	43.7 µM (inactive)	15.8 µM (inactive)	17.7 µM (inactive)					17.6 µM (inactive)	31.2 µM (inactive)
CC(C)(C)C1CCC(=O)C(C(O)CC2CC(=O)N(c3ccccc3)C(=O)C2)C1 (configuration not stated)	> 100 µM (inactive)	> 100 µM (inactive)	> 100 µM (inactive)	> 100 µM	> 100 µM (inactive)	49.5 µM (inactive)	> 100 µM (inactive)	> 100 µM (inactive)	> 100 µM (inactive)	73.1 µM (inactive)	> 100 µM (inactive)		> 100 µM (inactive)	> 100 µM (inactive)	> 100 µM (inactive)	> 100 µM (inactive)	> 100 µM (inactive)	> 100 µM (inactive)
COc1ccc(C2Cc3cc(OC)c(OC)c(OC)c3C2=O)cc1 (configuration not stated)	> 100 µM (inactive)	> 100 µM (inactive)	> 100 µM (inactive)	> 100 µM	80 µM (inactive)	> 100 µM (inactive)	> 100 µM (inactive)	> 100 µM (inactive)	> 100 µM (inactive)	> 100 µM (inactive)	> 100 µM (inactive)	75.3 µM (inactive)	> 100 µM (inactive)	47.3 µM (inactive)	> 100 µM (inactive)	> 100 µM (inactive)	> 100 µM (inactive)	
